# According to US20100266591A1, “METHOD OF TREATING ERYTHROPOIETIN HYPORESPONSIVE ANEMIAS” (priority 2008, published 2010):
# “Also recorded” adds a separate entry of the source.
# T1: human EPO-R displayed on UT-7 cells (human, UniProt P19235 25-508)
# T1 construct: Endogenous receptor on UT-7 human leukemic cells; also called erythropoietin receptor; human EPO receptor
# T1 sequence: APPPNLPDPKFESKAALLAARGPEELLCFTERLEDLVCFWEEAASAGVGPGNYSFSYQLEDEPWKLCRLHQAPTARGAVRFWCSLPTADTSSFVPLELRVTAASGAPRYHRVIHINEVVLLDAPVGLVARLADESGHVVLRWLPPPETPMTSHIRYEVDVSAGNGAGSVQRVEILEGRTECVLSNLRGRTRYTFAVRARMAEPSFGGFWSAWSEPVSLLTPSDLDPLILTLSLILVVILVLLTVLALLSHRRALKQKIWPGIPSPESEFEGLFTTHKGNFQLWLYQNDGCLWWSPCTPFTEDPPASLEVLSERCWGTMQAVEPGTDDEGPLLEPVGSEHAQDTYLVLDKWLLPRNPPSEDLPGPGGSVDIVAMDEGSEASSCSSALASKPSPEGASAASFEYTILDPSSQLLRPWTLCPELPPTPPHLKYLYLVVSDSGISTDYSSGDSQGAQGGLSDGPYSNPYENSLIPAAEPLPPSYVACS
# T2: EPO-receptor (form in the assay not stated) (human, UniProt P19235 25-508, limits assumed)
# T2 sequence: T1 sequence
# B1: CNTO 530 (Fc fusion)
# chain: QIQGGTYSCHFGPLTWVCKPQGGGSCPPCPAPEAAGGPSVFLFPPKPKDTLMISRTPEVTCVVVDVSQEDPEVQFNWYVDGVEVHNAKTKPREEQFNSTYRVVSVLTVLHQDWLNGKEYKCKVSNKGLPSSIEKTISKAKGQPREPQVYTLPPSQEEMTKNQVSLTCLVKGFYPSDIAVEWESNGQPENNYKTTPPVLDSDGSFFLYSRLTVDKSRWQEGNVFSCSVMHEALHNHYTQKSLSLSLGK
# notes: EPO-mimetic peptide antibody fusion protein; Homodimer joined by disulfide bonds through cysteines in the immunoglobulin-derived portion; May or may not be glycosylated; also called Dimeric EMP1 construct: CNTO 530
# Experiments:
# [1] = system: W/Wv mice; assay: Hgb response in c-kit deficient (W/Wv) mice; format: in vivo, mouse; conditions: single subcutaneous dose, 12,000 U/kg
# Protocol: Materials and Methods. Male and female WBB6F1/J-KitW/KitW-v (black eyed, white coat, affected; Related genotype ala KitW/KitW-v) (W/Wv) mice were obtained from Jackson Laboratories, Bar Harbor, Me. at 5 to 7 weeks of age. These mice are deficient in c-kit the receptor for SCF. The mice were group housed in filter topped plastic shoe-box style cages. CNTO 530 (30 UT-7 Units/ug) and epoetin-α (120 UT-7 Units/ug) were tested and PBS pH 7.4 was used as the control article. Study Design: On Day 1 mice received a weight-adjusted, subcutaneous (s.c.) dose of epoetin-α, CNTO 530 or PBS (10 mL/kg) according to Table 4. Three mice/sex were bled per group at each designated time point according to Table 4. On Days 4, 9, 14, and 28 (males) or 30 (females), mice were anesthetized with CO2 and blood samples ([…]) taken via open chest cardiac puncture for hematology. Blood was collected directly into tubes prepared with EDTA and mixed thoroughly for approximately 10 seconds and placed on a rocker to prevent coagulation. Whole blood was be analyzed using an ADVIA 120 hematology analyzer.
# Results. Data are expressed as the group mean and standard deviation or as group mean change from control. Mean values for the PBS control mice were used as the Day 1 baseline. For graphing, the nominal day may differ from the actual day of blood sampling by 1 day.
# [2] = system: UT7 cells; assay: UT7 cell proliferation assay; format: cell-based, human
# Protocol: Particularly useful in identifying and calibrating compositions useful in the method of the invention is the UT7 cell proliferation assay. The UT7 is a human leukemic cell line that has been adapted to become EPO-dependant. In order to use the UT7 cell proliferation assay for selection of a composition or a dose to be administered to a subject having low blood hemoglobin content, the cells are washed free or normal culture medium and starved for EPO for 24 hours prior to assay. For example, the UT-7 cell starvation can proceed in IMDM media with added L-glutamine and FBS at 5% (I5Q). The cells are then prepared and suspended in the appropriate media to a final concentration of 6×10^5 cells/mL (yields a final concentration of 30,000 cells per 96-well chamber). An EPO standard is prepared by diluting EPO stock to 5 ng/mL followed by 1:2 serial dilutions down to a concentration of 0.0098 ng/mL in I5Q media. […] Cell proliferation is assessed using a vital stain such as Promega's MTS solution (Promega, Madison, Wis.) according to the manufacturer's instructions. The EC50 is calculated from a curve fit of concentration vs proliferation as measured by the increase in absorbance of the chromophore or other signal. […]
# Using UT-7 cells, which display EPO-R and require an ESA for proliferation, competitive binding for the human EPO-R between CNTO 530 inhibited and ^125I-EPO was measured. […]
# [3] = per mg of protein; cited from earlier work
# [4] = system: C57Bl/6 mice; assay: Hgb response in C57Bl/6 mice (Example 1); format: in vivo, mouse
# Text: (§1) To comparative the pharmacodynamics of epoetin-α in C57Bl/6 and Tg197 mice, study animals were assigned to groups as shown in Table 1. On Day 0 the mice received a weight-adjusted, subcutaneous injection of test article (freshly diluted from stock) or PBS. Mice were euthanized by CO2 asphyxiation and blood was collected for each sample.
# Hematology: Blood samples from mice in the model characterization and pharmacodynamic studies were collected at the times indicated in Tables 1 and 2. Blood was collected from mice anesthetized with a CO2 mixture via open chest cardiac puncture into commercially prepared EDTA coated microtubes. Blood analyses were performed on whole blood using the ADVIA 120 blood analyzer (Bayer Diagnostics, Tarrytown, N.Y.). Data are expressed as group mean±standard deviation. Results: Data are expressed as the group mean and standard deviation or as group mean change from control. Mean values for the PBS control mice were used as the Day 1 baseline. For graphing, the nominal day may differ from the actual day of blood sampling by 1 day. Mean (±standard deviation) hematological data for 30 CBF1 and 50 Tg197 PBS control mice (9 to 13 weeks old) are shown in Table 3.
# [5] = system: ala +/+ mice; assay: Hgb response in normal ala +/+ littermates; format: in vivo, mouse; conditions: single subcutaneous dose, 12,000 U/kg
# [6] = system: Tg197 mice; assay: Hgb response in Tg197 mice (anemia of chronic disease); format: in vivo, mouse
# Text: The pharmacodynamics of epoetin-α in C57Bl/6 and Tg197 mice was first compared. Secondly, CNTO 530, epoetin-α and darbepoetin in Tg197 mice was compared.
# Materials and Methods. Nine-week old heterozygous Tg197-CBA F1 transgenic mice, age-matched C57Bl/6 mice and age-matched CBA-057Bl/6 F1 hybrid (CBF1) mice were obtained from Ace Laboratories (Boyertown, Pa.), Ace Laboratories and Jackson Laboratories (Bar Harbor, Me.), respectively. Founder Tg197 mice for the transgenic colony was obtained from G. Kollias. The breeding stock was maintained as homozygotes and received weekly injections of murine anti-human TNFa antibodies (10 mg/kg intraperitoneally) to control their arthritis. For these experiments, homozygous Tg197 males were bred to CBA females. CBF1 mice were used because their disease progresses more slowly than that seen in homozygous Tg197 mice. The mice were group housed (4 per cage) in filter-topped plastic shoebox style cages. The animals were individually identified with ear tags, placed at least a week prior to the start of the study. […] All mice were maintained in the pathogen-free vivarium at Centocor R&D, Inc., Radnor Pa. The Institutional Animal Care and Use Committee at Centocor approved all associated procedures.
# CNTO 530, recombinant human erythropoietin (epoetin-α, OrthoBiotech, Raritian N.J.), darbepoetin (Amgen, Thousand Oaks, Calif.), and PBS. Doses were expressed as mg/kg or UT-7 Units/kg (U/kg).
# as §1, with “sample. […]” for “sample.”
# Hematology: Blood samples from mice in the model characterization and pharmacodynamic studies were collected at the times indicated in Tables 1 and 2. […] Data are expressed as group mean±standard deviation. Results: Data are expressed as the group mean and standard deviation or as group mean change from control. […]
# [7] = system: normal rats; conditions: single subcutaneous dose, compared to rhEPO and darbepoetin; cited from earlier work
# [8] = system: UT7 cells; conditions: UT-7EPO cells; cited from earlier work
# [9] = cited from earlier work
# [10] = molecular target: T1, human EPO-R displayed on UT-7 cells; assay: competitive binding against 125I-EPO (0.5 nM) on UT-7 cells displaying human EPO-R
# Protocol: Using UT-7 cells, which display EPO-R and require an ESA for proliferation, competitive binding for the human EPO-R between CNTO 530 inhibited and ¹²⁵I-EPO was measured.
# [11] = molecular target: T2, EPO-receptor (form in the assay not …); assay: assay not stated
# [12] = molecular target: T1, human EPO-R displayed on UT-7 cells; assay: cell-based or functional assay
molecule,measurement,setting,value
"epoetin-α: recombinant human erythropoietin (OrthoBiotech), 166 amino acid sequence SEQ ID NO: 1",increase in hemoglobin,[1],less than 1 g/dL
same,in vitro activity,[2],120 UT-7 Units/ug
same,EC50,"[2]; 48 hours, MTS",~0.018 nM
same,specific activity,[3],"100,000 to 200,000 U/mg"
same,day Hgb returned to baseline,"[4]; 0.3 mg/kg s.c., single dose",15 days
same,increase in Hgb,"[4]; 0.3 mg/kg s.c., single dose",~1.5 g/dL
same,Hgb response,[4]; 0.03 and 0.3 mg/kg s.c.,dose-dependent increase in hemoglobin
same,increase in Hgb,[5],approximately 2 g/dL
same,Hgb response (increase),"[6]; 0.3 mg/kg s.c., single dose",~1 g/dL
same,day Hgb returned to baseline,"[6]; 0.3 mg/kg s.c., single dose",≤ 8 days
same,Hgb response,"[6]; single s.c. dose, comparison at 30,000 U/kg",little dose response between 0.03 and 0.3 mg/kg
"Human urinary EPO: isolated human urinary EPO, international reference standard for EPO assays",specific activity,[3],"about 70,000 U/mg"
"CNTO 528: EPO-mimetic peptide antibody fusion protein; disulfide-linked homodimer of SEQ ID NO: 2, two EMP1 copies and portions of human IgG",hematology response / efficacy,[7],longer-lived reticulocytosis and a longer-lived increase in hemoglobin; also recorded: only minor changes in red cell distribution width (RDW) or mean cell volume (MCV); also recorded: no effect on mean platelet volume (MPV); also recorded: efficacious in rat models of anemia and in a rat model of pure red cell aplasia
same,"fold less potent than rhEPO on a molar basis, growth stimulation",[8],approximately 10 fold
same,pharmacodynamic response,[9]; IV 0.03-0.9 mg/kg,"prolonged, dose-dependent erythropoietic responses; also recorded: dose dependent increase in RBC count; also recorded: dose-dependent increase in soluble transferrin receptor concentration; also recorded: dose-dependent increase in endogenous EPO concentration"
same,tolerability,[9]; IV 0.03-0.9 mg/kg,well tolerated
same,pharmacokinetics,[9]; IV,linear and approximately dose proportional
same,mean Hgb concentration above baseline at last measurement,[9]; approximately 2.5 months after a single dose,0.4 g/dL
same,immunogenicity,"[9]; human, in vivo",No immunogenicity was observed
same,time of maximum effect on Hgb concentration,[9]; single IV dose,22 days
B1,IC50,[10],~60 nM
same,Kd,[11],~10 nM
same,induction of UT-7 cell proliferation (EC50),[12],~0.055 nM
same,potency against rHuEPO in a simple proliferation assay using UT-7 cells,[12],~24 fold less potent than rHuEPO (molar)
same,rescue of EPO-deprived UT-7 cells from apoptosis (EC50),[12],~0.021 nM
